Structures can show the parent of a compound that is named as a salt. Where two headings read alike, the source gives them in different places.
Experiments:
[1] = test system: pseudotyped VSV expressing EBOV glycoprotein; experiment: microbe, parasite or virus in culture; assay type: cell-based, Ebola virus (EBOV); conditions: read-out: EC50 (uM) Pseudotype Assays EBOV
[2] = test system: pseudotyped VSV expressing BDBV glycoprotein; experiment: microbe, parasite or virus in culture; assay type: cell-based, Bundibugyo virus (BDBV); conditions: Vesicular stomatitis virus, Vero, 24 h, read-out: EC50 (uM) Pseudotype Assays BDBV
[3] = test system: pseudotyped VSV expressing SUDV glycoprotein; experiment: microbe, parasite or virus in culture; assay type: cell-based, Sudan virus (SUDV); conditions: read-out: EC50 (uM) Pseudotype Assays SUDV
[4] = test system: pseudotyped VSV expressing MARV glycoprotein; experiment: microbe, parasite or virus in culture; assay type: cell-based, Marburg virus (MARV); conditions: Vesicular stomatitis virus, Vero, 24 h, read-out: EC50 (uM) Pseudotype Assays MARV
[5] = 1 h, pH 7.4
[6] = 1 h, pH 7.4; remark: listed apart in the source
[7] = 1 h, pH 7.4; remark: listed apart in the source
[8] = 1 h, pH 7.4; remark: listed apart in the source
in vitro = conditions: African green monkey
WT EBOV-Mayinga = experiment: microbe, parasite or virus in culture; assay type: cell-based, Ebola virus (EBOV); conditions: Zaire ebolavirus
[9] = Vesicular stomatitis virus, Vero, 24 h

Work on `CC12CC3CC(C(=S)N4CC[C@H](N)C(C)(C)C4)(C1)CC(c1ccccc1)(C3)C2` (mixture of isomers) [Example C1] yielded an EC50 ([1]; Zaire ebolavirus, Vero, 24 h) of 0.06 µM, an EC50 [2] of 0.085 µM and an EC50 [3, 9] of 0.035 µM.
`CC12CC3CC(C(=S)N[C@H]4CC[C@H](N)CC4)(C1)CC(c1ccccc1)(C3)C2` (mixture of isomers) [Example C2] gave an EC50 ([1]; Zaire ebolavirus, Vero, 24 h) of 0.06 µM, an EC50 [2] of 0.085 µM and an EC50 [3, 9] of 0.07 µM.
In the case of `CC12CC3CC(C(=S)N[C@H]4CN5CCC4CC5)(C1)CC(c1ccccc1)(C3)C2` (mixture of isomers) [Example C3], the EC50 ([1]; Zaire ebolavirus, Vero, 24 h) was 0.17 µM, the EC50 [2] was 0.24 µM and the EC50 [3, 9] was 0.1 µM.
In the case of `N[C@H]1CC[C@H](NC(=O)C23CC4CC(CCl)(C2)CC(c2ccccc2)(C4)C3)CC1` (mixture of isomers) [Example E1, rac-trans-N-(4-aminocyclohexyl)-3-(chloromethyl)-5-phenyladamantane-1-carboxamide hydrochloride], the EC50 ([1]; Zaire ebolavirus, Vero, 24 h) was 0.034 µM, the EC50 [2] was 0.12 µM and the EC50 [3, 9] was 0.56 µM. For the same compound, the EC50 [4] was greater than 1 µM, the “Percent parent compound remaining at 60 minutes in liver microsomes, Human” value (from here on “Percent parent compound remaining … Human”) [5] was 89% and the “Percent parent compound remaining at 60 minutes in liver microsomes, Mouse” value (from here on “Percent parent compound remaining … Mouse”) [6] was 69%. For the same compound, the “Percent parent compound remaining at 60 minutes in liver microsomes, Monkey” value (from here on “Percent parent compound remaining … Monkey”) [7] was 72%, the “Percent parent compound remaining at 60 minutes in liver microsomes, Guinea Pig” value (shortened to “Percent parent compound remaining … Guinea Pig”) [8] was 100% and the CC50 (in vitro) was 13800 nM.
`CC1(C)CN(C(=O)C23CC4CC(CCl)(C2)CC(c2ccccc2)(C4)C3)CC[C@@H]1N` (mixture of isomers) [Example E2, rac-((S)-4-amino-3,3-dimethylpiperidin-1-yl)(3-(chloromethyl)-5-phenyladamantan-1-yl)methanone] showed an EC50 ([1]; Zaire ebolavirus, Vero, 24 h) of 0.057 µM, an EC50 [2] of 0.35 µM and an EC50 [3, 9] of 0.165 µM. It also gave an EC50 [4] greater than 1 µM and a CC50 (in vitro) of 36900 nM.
Compound `N[C@H]1CC[C@H](NC(=O)C23CC4CC(Br)(C2)CC(c2ccccc2)(C4)C3)CC1` (mixture of isomers) [Example E3, rac-trans-N-(4-aminocyclohexyl)-3-bromo-5-phenyladamantane-1-carboxamide] has an EC50 ([1]; Zaire ebolavirus, Vero, 24 h) of 0.061 µM, an EC50 [2] of 0.19 µM and an EC50 [3, 9] of 0.34 µM. For the same compound, the “Percent parent compound remaining … Human” value [5] was 97.5%, the “Percent parent compound remaining … Monkey” value [7] was 91% and the “Percent parent compound remaining … Guinea Pig” value [8] was 96%.
For `CSCC12CC3CC(C(=O)N[C@H]4CC[C@H](N)CC4)(C1)CC(c1ccccc1)(C3)C2` (mixture of isomers) [Example E6, rac-trans-N-(4-aminocyclohexyl)-3-((methylthio)methyl)-5-phenyladamantane-1-carboxamide], the EC50 ([1]; Zaire ebolavirus, Vero, 24 h) was 0.05 µM, the EC50 [2] was 0.6 µM and the EC50 [3, 9] was 0.75 µM. For the same compound, the EC50 [4] was greater than 1 µM and the CC50 (in vitro) was 34600 nM.
Work on `N[C@H]1CC[C@H](NC(=O)C23CC4CC(CSc5ccccc5)(C2)CC(c2ccccc2)(C4)C3)CC1` (mixture of isomers) [Example E7, rac-trans-N-(4-aminocyclohexyl)-3-phenyl-5-((phenylthio)methyl)adamantane-1-carboxamide] yielded an EC50 ([1]; Zaire ebolavirus, Vero, 24 h) of 0.056 µM, an EC50 [2] of 1.21 µM and an EC50 [3, 9] greater than 1 µM. The EC50 [4] was greater than 1 µM and the CC50 (in vitro) was 4750 nM.
`CC1(C)CN(C(=O)C23CC4CC(CSc5ccccc5)(C2)CC(c2ccccc2)(C4)C3)CC[C@@H]1N` (mixture of isomers) [Example E8, rac-((S)-4-amino-3,3-dimethylpiperidin-1-yl)(3-phenyl-5-((phenylthio)methyl)adamantan-1-yl)methanone] showed an EC50 ([1]; Zaire ebolavirus, Vero, 24 h) of 0.145 µM, an EC50 [2] greater than 1 µM and an EC50 [3, 9] greater than 1 µM. For the same compound, the EC50 [4] was greater than 1 µM.
Work on `CC1(C)CN(C(=S)[C@@]23C[C@H]4C[C@@](C)(C2)C[C@](c2ccccc2)(C4)C3)CC[C@@H]1N` [Example A1, ((S)-4-amino-3,3-dimethylpiperidin-1-yl)((1 S,3R,5R,7S)-3-methyl-5-phenyladamantan-1-yl)methanethione] yielded an EC50 ([1]; Zaire ebolavirus, Vero, 24 h) of 0.061 µM, an EC50 [2] of 0.11 µM and an EC50 [3, 9] of 0.043 µM. The EC50 [4] was greater than 1 µM, the “Percent parent compound remaining … Human” value [5] was 72% and the “Percent parent compound remaining … Monkey” value [7] was 19%. For the same compound, the “Percent parent compound remaining … Guinea Pig” value [8] was 32% and the CC50 (in vitro) was 3800 nM.
`C[C@]12CC3CC(C(=S)N[C@H]4CN5CCC4CC5)(C1)C[C@@](c1ccccc1)(C3)C2` [Example A3] showed an EC50 ([1]; Zaire ebolavirus, Vero, 24 h) of 0.067 µM, an EC50 [2] of 0.29 µM and an EC50 [3, 9] of 0.08 µM. It also gave an EC50 [4] greater than 1 µM and a CC50 (in vitro) of 1770 nM.
With `C[C@]12CC3CC(C(=S)N4CCC(N)CC4)(C1)C[C@@](c1ccccc1)(C3)C2` [Example A4] the EC50 ([1]; Zaire ebolavirus, Vero, 24 h) was 0.085 µM, the EC50 [2] was 0.06 µM and the EC50 [3, 9] was 0.04 µM. It also gave a CC50 (in vitro) of 4090 nM.
In the case of `C[C@]12CC3CC(C(=S)N[C@H]4CC[C@@H](N)CC4)(C1)C[C@@](c1ccccc1)(C3)C2` [Example A5], the EC50 ([1]; Zaire ebolavirus, Vero, 24 h) was 0.12 µM, the EC50 [2] was 0.19 µM and the EC50 [3, 9] was 0.125 µM.
`C[C@]12CC3CC(C(=S)NC4CCNCC4)(C1)C[C@@](c1ccccc1)(C3)C2` [Example A6] gave an EC50 ([1]; Zaire ebolavirus, Vero, 24 h) of 0.064 µM, an EC50 [2] of 0.085 µM and an EC50 [3, 9] of 0.08 µM. It also gave a CC50 (in vitro) of 4720 nM.
For `C[C@]12CC3CC(C(=S)N[C@H]4CC[C@H](CN)CC4)(C1)C[C@@](c1ccccc1)(C3)C2` [Example A7], the EC50 ([1]; Zaire ebolavirus, Vero, 24 h) was 0.075 µM, the EC50 [2] was 0.09 µM and the EC50 [3, 9] was 0.095 µM. It also gave a CC50 (in vitro) of 2860 nM.
For `CC1(C)CN(C(=S)C23CC4C[C@](C)(C2)C[C@@](c2ccccc2)(C4)C3)CC[C@@H]1N` [Example B1], the EC50 ([1]; Zaire ebolavirus, Vero, 24 h) was 0.74 µM, the EC50 [2] was 0.4 µM and the EC50 [3, 9] was 0.26 µM.
`C[C@@]12CC3CC(C(=S)N[C@H]4CC[C@H](N)CC4)(C1)C[C@](c1ccccc1)(C3)C2` [Example B2] gave an EC50 ([1]; Zaire ebolavirus, Vero, 24 h) of 0.09 µM, an EC50 [2] of 0.16 µM and an EC50 [3, 9] of 0.26 µM. For the same compound, the CC50 (in vitro) was 3720 nM.
In the case of `C[C@@]12CC3CC(C(=S)N[C@H]4CN5CCC4CC5)(C1)C[C@](c1ccccc1)(C3)C2` [Example B3], the EC50 ([1]; Zaire ebolavirus, Vero, 24 h) was 0.66 µM, the EC50 [2] was 0.31 µM and the EC50 [3, 9] was 0.36 µM. It also gave an EC50 [4] greater than 1 µM.
For `N[C@H]1CC[C@H](NC(=S)C2C3CC4CC2CC(c2ccccc2)(C4)C3)CC1` (stereo partly drawn) [Example D1, trans-N-(4-aminocyclohexyl)-5-phenyladamantane-2-carbothioamide], the EC50 ([1]; Zaire ebolavirus, Vero, 24 h) was 0.21 µM, the EC50 [2] was 0.3 µM and the EC50 [3, 9] was 0.29 µM.
`CCCC1C2CC3(C(=O)N[C@H]4CC[C@H](N)CC4)CC1CC(c1ccccc1)(C2)C3` (stereo partly drawn) [Example F3] gave an EC50 ([1]; Zaire ebolavirus, Vero, 24 h) of 0.005 µM, an EC50 [2] of 0.08 µM and an EC50 [3, 9] of 0.39 µM. For the same compound, the EC50 [4] was 1.6 µM, the EC50 (WT EBOV-Mayinga; read-out: WT EBOV-Mayinga EC50 (uM)) was roughly 0.008 µM and the EC90 (WT EBOV-Mayinga; read-out: WT EBOV-Mayinga EC90 (uM)) was roughly 0.01 µM. For the same compound, the “Percent parent compound remaining … Human” value [5] was 91%, the “Percent parent compound remaining … Mouse” value [6] was 26% and the “Percent parent compound remaining … Monkey” value [7] was 100%. For the same compound, the “Percent parent compound remaining … Guinea Pig” value [8] was 48% and the CC50 (in vitro) was 4650 nM.
`CC(C)CC1C2CC3(C(=O)N[C@H]4CC[C@H](N)CC4)CC1CC(c1ccccc1)(C2)C3` (stereo partly drawn) [Example F4] gave an EC50 ([1]; Zaire ebolavirus, Vero, 24 h) of 0.016 µM, an EC50 [2] of 0.3 µM and an EC50 [3, 9] of 0.86 µM. For the same compound, the EC50 [4] was 1.38 µM and the CC50 (in vitro) was 5800 nM.
For `CCC1C2CC3(C(=O)N4CC[C@H](N)C(C)(C)C4)CC1CC(c1ccccc1)(C2)C3` (stereo partly drawn) [Example F5], the EC50 ([1]; Zaire ebolavirus, Vero, 24 h) was 0.046 µM, the EC50 [3, 9] was 0.1 µM and the CC50 (in vitro) was 12300 nM.
With `CC1(O)C2CC3(C(=O)N[C@H]4CC[C@H](N)CC4)CC1CC(c1ccccc1)(C2)C3` (stereo partly drawn) [Example H1, trans-N-(4-aminocyclohexyl)-6-hydroxy-6-methyl-3-phenyladamantane-1-carboxamide] the EC50 ([1]; Zaire ebolavirus, Vero, 24 h) was greater than 1 µM and the EC50 [3, 9] was greater than 1 µM.
With `CC1(O)C2CC3(C(=O)N[C@H]4CC[C@H](N)CC4)CC1CC(c1ccccc1)(C2)C3` (stereo partly drawn) [Example H2, trans-N-(4-aminocyclohexyl)-6-hydroxy-6-methyl-3-phenyladamantane-1-carboxamide] the EC50 [1] was greater than 1 µM and the EC50 [3] was greater than 1 µM.
`CCC1(Cl)C2CC3(C(=O)N4CC[C@H](N)C(C)(C)C4)CC1CC(c1ccccc1)(C2)C3` (stereo partly drawn) [Example H3, ((S)-4-amino-3,3-dimethylpiperidin-1-yl)(6-chloro-6-ethyl-3-phenyladamantan-1-yl)methanone] gave an EC50 ([1]; Zaire ebolavirus, Vero, 24 h) of 0.063 µM, an EC50 [3, 9] of 0.17 µM and a CC50 (in vitro) of 14700 nM.
For `N[C@H]1CC[C@H](NC(=O)C23CC4CC(c5ccccc5)(CC(C2)C4CCF)C3)CC1` (stereo partly drawn) [Example H4, trans-N-(4-aminocyclohexyl)-6-(2-fluoroethyl)-3-phenyladamantane-1-carboxamide], the EC50 ([1]; Zaire ebolavirus, Vero, 24 h) was 0.014 µM, the EC50 [3, 9] was 0.16 µM and the “Percent parent compound remaining … Human” value [5] was 81%. For the same compound, the “Percent parent compound remaining … Mouse” value [6] was 39%, the “Percent parent compound remaining … Guinea Pig” value [8] was 80.5% and the CC50 (in vitro) was 25100 nM.
For `N[C@H]1CC[C@H](NC(=O)C23CC4CC(c5ccccc5)(CC(C2)C4CCCl)C3)CC1` (stereo partly drawn) [Example H5, trans-N-(4-aminocyclohexyl)-6-(2-chloroethyl)-3-phenyladamantane-1-carboxamide], the EC50 ([1]; Zaire ebolavirus, Vero, 24 h) was 0.01 µM, the EC50 [3, 9] was 0.27 µM and the “Percent parent compound remaining … Human” value [5] was 85%. The “Percent parent compound remaining … Mouse” value [6] was 35%, the “Percent parent compound remaining … Guinea Pig” value [8] was 80.5% and the CC50 (in vitro) was 7260 nM.
For `N[C@H]1CC[C@H](NC(=O)C23CC4CC(c5ccccc5)(CC(C2)C4CC(F)F)C3)CC1` (stereo partly drawn) [Example H6, trans-N-(4-aminocyclohexyl)-6-(2,2-difluoroethyl)-3-phenyladamantane-1-carboxamide], the EC50 ([1]; Zaire ebolavirus, Vero, 24 h) was 0.02 µM, the EC50 [3, 9] was 0.18 µM and the CC50 (in vitro) was 22200 nM.
